Assay results published in patent publication US9249145B2, “Heterocyclic derivatives of pyrazol-4-yl-pyrrolo[2,3-d]pyrimidines as janus kinase inhibitors” (Incyte Holdings Corporation, priority 2009, dated 2016).
Structures can show the parent of a compound that is named as a salt. Where two headings read alike, the source gives them in different places.

Assays:
[1] = target: T1, human JAK1 (a.a. 837-1142) (Homo sapiens, UniProt P23458); assay: In vitro JAK kinase assay (HTRF, phosphorylation of biotinylated peptide), JAK1; type: biochemical; settings: Examples 1-11
T1 construct: The catalytic domains of human JAK1 (a.a. 837-1142); His tag (N); made in house; host or cells: insect cells (baculovirus)
Protocol: (§1) Compounds herein were tested for inhibitory activity of JAK targets according to the following in vitro assay described in Park et al., Analytical Biochemistry 1999, 269, 94-104. The catalytic domains of human JAK1 (a.a. 837-1142), Jak2 (a.a. 828-1132) and Jak3 (a.a. 781-1124) with an N-terminal His tag were expressed using baculovirus in insect cells and purified. The catalytic activity of JAK1, JAK2 or JAK3 was assayed by measuring the phosphorylation of a biotinylated peptide. The phosphorylated peptide was detected by homogenous time resolved fluorescence (HTRF). IC50s of compounds were measured for each kinase in the 40 microL reactions that contain the enzyme, ATP and 500 nM peptide in 50 mM Tris (pH 7.8) buffer with 100 mM NaCl, 5 mM DTT, and 0.1 mg/mL (0.01%) BSA. The ATP concentration in the reactions was 90 μM for Jak1, 30 μM for Jak2 and 3 μM for Jak3 for Km conditions. For the 1 mM IC50 measurements, ATP concentration in the reactions was 1 mM. Reactions were carried out at room temperature for 1 hr and then stopped with 20 μL 45 mM EDTA, 300 nM SA-APC, 6 nM Eu-Py20 in assay buffer (Perkin Elmer, Boston, Mass.). Binding to the Europium labeled antibody took place for 40 minutes and HTRF signal was measured on a Fusion plate reader (Perkin Elmer, Boston, Mass.). See Tables 1, 2, 3, and 4 for data related to compounds of the invention.

Jak2 (a.a. 828-1132) = target: T2, Jak2 (a.a. 828-1132) (Homo sapiens, UniProt O60674); assay: In vitro JAK kinase assay (HTRF, phosphorylation of biotinylated peptide), JAK2; type: biochemical; settings: Examples 1-11
T2 construct: Jak2 (a.a. 828-1132); His tag (N); made in house; host or cells: insect cells (baculovirus)
Protocol: as §1

[2] = 1 mM ATP, read-out: IC50 (nM) @ 1 mM ATP JAK1
[3] = Km ATP (90 μM for Jak1), read-out: IC50 (nM) @ Km ATP JAK1
[4] = 1 mM ATP, read-out: IC50 (nM) @ 1 mM ATP JAK2
[5] = Km ATP (30 μM for Jak2), read-out: IC50 (nM) @ Km ATP JAK2

T1 sequence (P23458 849-1154): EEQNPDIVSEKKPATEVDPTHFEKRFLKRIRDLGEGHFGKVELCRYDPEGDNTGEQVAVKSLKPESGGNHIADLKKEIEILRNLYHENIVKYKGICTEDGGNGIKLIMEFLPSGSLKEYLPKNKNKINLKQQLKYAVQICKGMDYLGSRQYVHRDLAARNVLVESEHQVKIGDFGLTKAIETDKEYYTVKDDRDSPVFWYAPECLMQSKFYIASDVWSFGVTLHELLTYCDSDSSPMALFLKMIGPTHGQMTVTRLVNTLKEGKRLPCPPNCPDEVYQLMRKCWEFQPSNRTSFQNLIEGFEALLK
T2 sequence (O60674 828-1132): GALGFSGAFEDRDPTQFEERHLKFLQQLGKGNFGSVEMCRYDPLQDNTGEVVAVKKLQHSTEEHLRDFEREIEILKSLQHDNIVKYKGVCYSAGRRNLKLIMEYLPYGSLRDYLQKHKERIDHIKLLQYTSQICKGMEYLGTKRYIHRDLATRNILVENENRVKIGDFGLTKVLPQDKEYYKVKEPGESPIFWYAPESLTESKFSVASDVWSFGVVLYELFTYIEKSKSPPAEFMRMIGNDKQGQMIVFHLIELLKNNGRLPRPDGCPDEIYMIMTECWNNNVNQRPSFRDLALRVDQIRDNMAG

Row | Structure (SMILES) | IC50 [1, 2] [nM] | IC50 [1, 3] [nM] | IC50 (Jak2 (a.a. 828-1132); [4]) [nM] | IC50 (Jak2 (a.a. 828-1132); [5]) [nM]
1 | CS(=O)(=O)N1CCN(CC(CC#N)n2cc(-c3ncnc4[nH]ccc34)cn2)CC1 (centres unmarked) [Example 1, 4-[4-(methylsulfonyl)piperazin-1-yl]-3-[4-(7H-pyrrolo[2,3-d]pyrimidin-4-yl)-1H-pyrazol-1-yl]butanenitrile] | < 10 | < 10 | 10 to 20 | < 10
2 | N#CCC(CN1CCN(C(=O)c2ccc(C#N)cc2)CC1)n1cc(-c2ncnc3[nH]ccc23)cn1 (centres unmarked) [Example 2, 4-[(4-{3-cyano-2-[4-(7H-pyrrolo[2,3-d]pyrimidin-4-yl)-1H-pyrazol-1-yl]propyl}piperazin-1-yl)carbonyl]benzonitrile] | < 10 | < 10 | > 20 | 10 to 20
3 | N#CCC(CN1CCN(C(=O)c2cc(F)cc(F)c2)CC1)n1cc(-c2ncnc3[nH]ccc23)cn1 (centres unmarked) [Example 3, 4-[4-(3,5-difluorobenzoyl)piperazin-1-yl]-3-[4-(7H-pyrrolo[2,3-d]pyrimidin-4-yl)-1H-pyrazol-1-yl]butanenitrile] | 10 to 20 | < 10 | < 10 | < 10
4 | Cn1ccc(S(=O)(=O)N2CCN(CC(CC#N)n3cc(-c4ncnc5[nH]ccc45)cn3)CC2)n1 (centres unmarked) [Example 4, 4-{4-[(1-methyl-1H-pyrazol-3-yl)sulfonyl]piperazin-1-yl}-3-[4-(7H-pyrrolo[2,3-d]pyrimidin-4-yl)-1H-pyrazol-1-yl]butanenitrile] | < 10 | < 10 | < 10 | < 10
5 | N#CCC(CC1CCN(S(=O)(=O)C2CC2)CC1)n1cc(-c2ncnc3[nH]ccc23)cn1 (centres unmarked) [Example 5, 4-[1-(cyclopropylsulfonyl)piperidin-4-yl]-3-[4-(7H-pyrrolo[2,3-d]pyrimidin-4-yl)-1H-pyrazol-1-yl]butanenitrile] |  | < 10 | < 10 | < 10

Further lines, results first:

Row | IC50 [1, 2] [nM] | IC50 [1, 3] [nM] | IC50 (Jak2 (a.a. 828-1132); [4]) [nM] | IC50 (Jak2 (a.a. 828-1132); [5]) [nM] | Structure (SMILES)
6 |  | < 10 |  | < 10 | N#CCC(CC1CCN(C(=O)c2ccc(F)cc2F)CC1)n1cc(-c2ncnc3[nH]ccc23)cn1 (centres unmarked) [Example 6, 4-[1-(2,4-difluorobenzoyl)piperidin-4-yl]-3-[4-(7H-pyrrolo[2,3-d]pyrimidin-4-yl)-1H-pyrazol-1-yl]butanenitrile]
7 | < 10 | < 10 | < 10 | < 10 | Cn1ccc(S(=O)(=O)N2CCC(CC(CC#N)n3cc(-c4ncnc5[nH]ccc45)cn3)CC2)n1 (centres unmarked) [Example 7, 4-{1-[(1-methyl-1H-pyrazol-3-yl)sulfonyl]piperidin-4-yl}-3-[4-(7H-pyrrolo[2,3-d]pyrimidin-4-yl)-1H-pyrazol-1-yl]butanenitrile]
8 |  | < 10 | < 10 | < 10 | N#CCC(CC1CCN(C(=O)c2ccc(F)cc2)CC1)n1cc(-c2ncnc3[nH]ccc23)cn1 (centres unmarked) [Example 8, 4-[1-(4-fluorobenzoyl)piperidin-4-yl]-3-[4-(7H-pyrrolo[2,3-d]pyrimidin-4-yl)-1H-pyrazol-1-yl]butanenitrile]
9 | < 10 |  | > 20 |  | CC(CN1CCN(S(=O)(=O)c2ccn(C)n2)CC1)n1cc(-c2ncnc3[nH]ccc23)cn1 (centres unmarked) [Example 9, 4-[1-(1-methyl-2-{4-[(1-methyl-1H-pyrazol-3-yl)sulfonyl]piperazin-1-yl}ethyl)-1H-pyrazol-4-yl]-7H-pyrrolo[2,3-d]pyrimidine, phosphoric acid salt]
10 | < 10 |  | > 20 |  | CC(CN1CCN(S(=O)(=O)c2ccn(C)n2)CC1)n1cc(-c2ncnc3[nH]ccc23)cn1 (centres unmarked) [Example 11, 4-[1-(1-methyl-2-{4-[(1-methyl-1H-pyrazol-3-yl)sulfonyl]piperazin-1-yl}ethyl)-1H-pyrazol-4-yl]-7H-pyrrolo[2,3-d]pyrimidine bis(phosphate) Salt]
